Values after ≈ are worked out from the molar mass of the structure shown. Read-outs that look alike come from different tables or passages of the source.
Assays:
[1] = tested on: C. glabrata in vitro translation; test: In vitro translation assay, C. glabrata; type: biochemical; details: average of three independent experiments
Method: (§1) In vitro translation assays were performed as described in Shastry, et al. Microbiology, 2001, 147(2):383-90. The IC50 values are the average of three independent experiments. The lower limit of sensitivity is about 0.005 μg/ml.

[2] = tested on: A. nidulans in vitro translation; test: In vitro translation assay, A. nidulans; type: biochemical; details: average of three independent experiments
Method: as §1

[3] = target: C. lusitaniae/SIII (S. cerevisiae strain expressing C. lusitaniae eEF2) (Clavispora lusitaniae, UniProt C4YCF8); test: SwordIII growth inhibition assay, C. lusitaniae/SIII strain; type: cell-based
Text: (§2) Sordarin and its derivatives bind to the eEF2-ribosome-nucleotide complex in sensitive fungi. Through different in vitro assays using purified components from human, yeast and plant cells, it has been shown that the selective sensitivity to sordarin and its derivatives is dependent on fungal eEF2. The fungal specificity of the sordarin makes eEF2 an attractive anti-infective target. (J Biol Chem. 1998, Feb 6; 273(6):3148-51).
(§3) Specifically, natural products are screened which show a differential activity between the human control and the other strains, although a 100% differential is not required in the initial discovery effort. It may be possible to observe hits solely against the fungal eEF2s, and/or the protozoal eEF2s. In sum, SWORDIII is designed to identify inhibitors of fungal and protozoal eEF2s to provide opportunities for developing anti-infective agents with a unique and selective mechanism of action.
(§4) For this reason, the eEF2 encoding genes from different organisms and several species of pathogenic fungi have been cloned, characterized and expressed in S. cerevisiae at Merck Research Laboratory, as previously described (Microbiology 147:383-90, 2001). Site directed mutagenesis of the C. parapsilosis gene encoding eEF2 to create S521Y, N523S single mutants and the S521Y, N523S double mutant was accomplished by the PCR overlap extension technique (Gene 77:51-59, 1989). […]

[4] = target: A. fumigatus/SIII (S. cerevisiae strain expressing A. fumigatus eEF2) (Aspergillus fumigatus, UniProt Q4X0G7); test: SwordIII growth inhibition assay, A. fumigatus/SIII strain; type: cell-based
Text: as §2, §3, §4

[5] = target: E. tenella/SIII (S. cerevisiae strain expressing E. tenella eEF2) (Eimeria tenella, UniProt A0A184W4F4); test: SwordIII growth inhibition assay, E. tenella/SIII strain; type: cell-based
Text: as §2, §3, §4

[6] = target: C. krusei/SIII (S. cerevisiae strain expressing C. krusei eEF2) (Pichia kudriavzevii, UniProt A0A2U9R6P9); test: SwordIII growth inhibition assay, C. krusei/SIII strain; type: cell-based
Text: as §2, §3, §4

[7] = target: Human/SIII (S. cerevisiae strain expressing human eEF2) (UniProt P13639, cells depend on it, species not given); test: SwordIII growth inhibition assay, Human/SIII strain; type: cell-based
Text: as §2, §3, §4

[8] = tested on: C. krusei in vitro translation; test: In vitro translation assay, C. krusei; type: biochemical; details: average of three independent experiments
Method: as §1

[9] = tested on: C. parapsilosis in vitro translation; test: In vitro translation assay, C. parapsilosis; type: biochemical; details: average of three independent experiments
Method: as §1

[10] = tested on: C. neoformans in vitro translation; test: In vitro translation assay, C. neoformans; type: biochemical; details: average of three independent experiments
Method: as §1

[11] = target: C. neoformans/SIII (S. cerevisiae strain expressing C. neoformans eEF2) (Cryptococcus neoformans, UniProt Q9HFZ8); test: SwordIII growth inhibition assay, C. neoformans/SIII strain; type: cell-based
Text: as §2, §3, §4

[12] = tested on: C. albicans in vitro translation; test: In vitro translation assay, C. albicans; type: biochemical; details: average of three independent experiments, lower limit of sensitivity about 0.005 μg/ml
Method: as §1

[13] = target: T1, S. cerevisiae/SIII (S. cerevisiae strain, S. cerevisiae eEF2) (Saccharomyces cerevisiae, UniProt P32324); test: SwordIII growth inhibition assay, S. cerevisiae/SIII strain; type: cell-based
T1 construct: expressed in transfected cells; host or cells: S. cerevisiae Δeft1 Δeft2 deletion strain YEFD12h
Text: as §2, §3, §4

[14] = target: T2, C. glabrata/SIII (S. cerevisiae strain expressing C. glabrata eEF2) (Candida glabrata, UniProt Q6FYA7); test: SwordIII growth inhibition assay, C. glabrata/SIII strain; type: cell-based
T2 construct: S. cerevisiae strains expressing full length heterologous eEF2s; expressed in transfected cells; host or cells: S. cerevisiae Δeft1 Δeft2 deletion strain YEFD12h
Text: as §2, §3, §4

[15] = tested on: S. cerevisiae in vitro translation; test: In vitro translation assay, S. cerevisiae; type: biochemical; details: average of three independent experiments, lower limit of sensitivity about 0.005 μg/ml
Method: as §1

[16] = tested on: C. guilliermondi in vitro translation; test: In vitro translation assay, C. guilliermondi; type: biochemical; details: average of three independent experiments, lower limit of sensitivity about 0.005 μg/ml
Method: as §1

[17] = tested on: C. lusitaniae in vitro translation; test: In vitro translation assay, C. lusitaniae; type: biochemical; details: average of three independent experiments
Method: as §1

[18] = read-out: IC50 (μg/ml), SC medium, 29° C., approximately 16 hours
[19] = SC medium, 29° C., approximately 16 hours, read-out: IC50 (μg/ml)

Chain of A. fumigatus/SIII (S. cerevisiae strain expressing A. fumigatus eEF2) (Q4X0G7 1-839, change not shown): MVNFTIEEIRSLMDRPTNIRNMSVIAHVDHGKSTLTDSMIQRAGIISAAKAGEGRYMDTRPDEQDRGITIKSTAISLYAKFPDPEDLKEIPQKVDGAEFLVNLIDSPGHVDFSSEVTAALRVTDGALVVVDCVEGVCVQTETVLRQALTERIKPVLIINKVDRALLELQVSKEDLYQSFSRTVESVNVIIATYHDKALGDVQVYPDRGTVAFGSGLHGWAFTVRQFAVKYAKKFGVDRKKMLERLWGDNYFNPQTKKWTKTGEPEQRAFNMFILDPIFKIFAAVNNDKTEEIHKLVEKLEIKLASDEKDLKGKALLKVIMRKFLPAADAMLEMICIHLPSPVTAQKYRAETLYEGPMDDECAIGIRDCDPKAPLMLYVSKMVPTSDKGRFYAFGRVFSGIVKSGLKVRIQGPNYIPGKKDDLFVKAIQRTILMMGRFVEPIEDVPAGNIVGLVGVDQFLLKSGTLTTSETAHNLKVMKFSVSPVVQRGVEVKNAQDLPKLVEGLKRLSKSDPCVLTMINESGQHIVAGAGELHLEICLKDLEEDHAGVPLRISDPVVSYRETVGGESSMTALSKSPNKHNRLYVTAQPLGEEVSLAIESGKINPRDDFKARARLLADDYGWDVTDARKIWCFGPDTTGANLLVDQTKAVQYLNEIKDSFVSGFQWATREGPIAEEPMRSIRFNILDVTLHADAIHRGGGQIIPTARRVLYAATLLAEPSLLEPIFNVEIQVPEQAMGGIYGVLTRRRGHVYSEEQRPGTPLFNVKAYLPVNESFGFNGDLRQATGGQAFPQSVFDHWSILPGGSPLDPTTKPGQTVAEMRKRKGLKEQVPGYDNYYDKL
Chain of C. neoformans/SIII (S. cerevisiae strain expressing C. neoformans eEF2) (Q9HFZ8 1-838, change not shown): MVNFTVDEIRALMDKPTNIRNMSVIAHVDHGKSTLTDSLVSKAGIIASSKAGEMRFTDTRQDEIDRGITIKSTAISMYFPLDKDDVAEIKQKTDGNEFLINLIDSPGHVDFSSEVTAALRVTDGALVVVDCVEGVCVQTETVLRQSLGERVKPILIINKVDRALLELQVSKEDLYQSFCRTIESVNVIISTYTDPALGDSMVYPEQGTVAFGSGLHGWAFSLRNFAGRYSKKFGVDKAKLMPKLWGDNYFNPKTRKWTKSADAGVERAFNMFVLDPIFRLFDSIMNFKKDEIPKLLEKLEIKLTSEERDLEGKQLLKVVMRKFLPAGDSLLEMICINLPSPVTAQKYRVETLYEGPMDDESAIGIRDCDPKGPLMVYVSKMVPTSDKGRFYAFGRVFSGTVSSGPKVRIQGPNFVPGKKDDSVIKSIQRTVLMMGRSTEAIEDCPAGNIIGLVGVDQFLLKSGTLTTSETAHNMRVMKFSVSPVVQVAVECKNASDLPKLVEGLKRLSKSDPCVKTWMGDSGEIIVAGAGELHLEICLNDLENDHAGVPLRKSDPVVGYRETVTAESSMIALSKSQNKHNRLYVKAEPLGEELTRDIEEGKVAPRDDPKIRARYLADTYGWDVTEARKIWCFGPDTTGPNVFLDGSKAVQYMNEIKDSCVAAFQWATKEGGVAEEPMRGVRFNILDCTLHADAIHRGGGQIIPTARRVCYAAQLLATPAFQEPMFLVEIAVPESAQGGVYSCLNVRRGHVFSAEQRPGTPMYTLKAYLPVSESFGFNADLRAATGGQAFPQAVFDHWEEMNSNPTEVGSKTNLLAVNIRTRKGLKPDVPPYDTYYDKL
T1 sequence (P32324 whole entry): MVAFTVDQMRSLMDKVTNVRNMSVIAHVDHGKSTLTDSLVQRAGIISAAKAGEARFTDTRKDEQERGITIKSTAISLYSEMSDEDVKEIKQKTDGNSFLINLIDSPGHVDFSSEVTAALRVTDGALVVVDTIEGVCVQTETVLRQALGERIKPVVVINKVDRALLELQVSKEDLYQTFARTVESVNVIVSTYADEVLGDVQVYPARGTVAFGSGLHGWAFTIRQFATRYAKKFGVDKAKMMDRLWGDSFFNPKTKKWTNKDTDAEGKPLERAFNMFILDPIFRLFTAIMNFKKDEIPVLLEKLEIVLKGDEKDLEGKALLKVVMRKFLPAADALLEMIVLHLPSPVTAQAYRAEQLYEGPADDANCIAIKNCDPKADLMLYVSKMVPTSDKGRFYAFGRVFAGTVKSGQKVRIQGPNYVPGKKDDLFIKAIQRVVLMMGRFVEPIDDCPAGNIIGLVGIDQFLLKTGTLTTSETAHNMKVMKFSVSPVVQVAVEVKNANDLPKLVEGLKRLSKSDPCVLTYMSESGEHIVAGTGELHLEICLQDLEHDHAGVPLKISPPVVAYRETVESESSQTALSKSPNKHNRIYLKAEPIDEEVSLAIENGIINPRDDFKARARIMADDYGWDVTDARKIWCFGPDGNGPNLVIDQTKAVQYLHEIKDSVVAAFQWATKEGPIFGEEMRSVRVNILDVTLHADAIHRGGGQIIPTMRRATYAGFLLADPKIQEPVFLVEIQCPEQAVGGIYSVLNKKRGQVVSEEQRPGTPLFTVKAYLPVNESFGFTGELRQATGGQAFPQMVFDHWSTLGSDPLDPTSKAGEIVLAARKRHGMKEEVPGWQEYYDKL
Chain of C. lusitaniae/SIII (S. cerevisiae strain expressing C. lusitaniae eEF2) (C4YCF8 1-830, change not shown): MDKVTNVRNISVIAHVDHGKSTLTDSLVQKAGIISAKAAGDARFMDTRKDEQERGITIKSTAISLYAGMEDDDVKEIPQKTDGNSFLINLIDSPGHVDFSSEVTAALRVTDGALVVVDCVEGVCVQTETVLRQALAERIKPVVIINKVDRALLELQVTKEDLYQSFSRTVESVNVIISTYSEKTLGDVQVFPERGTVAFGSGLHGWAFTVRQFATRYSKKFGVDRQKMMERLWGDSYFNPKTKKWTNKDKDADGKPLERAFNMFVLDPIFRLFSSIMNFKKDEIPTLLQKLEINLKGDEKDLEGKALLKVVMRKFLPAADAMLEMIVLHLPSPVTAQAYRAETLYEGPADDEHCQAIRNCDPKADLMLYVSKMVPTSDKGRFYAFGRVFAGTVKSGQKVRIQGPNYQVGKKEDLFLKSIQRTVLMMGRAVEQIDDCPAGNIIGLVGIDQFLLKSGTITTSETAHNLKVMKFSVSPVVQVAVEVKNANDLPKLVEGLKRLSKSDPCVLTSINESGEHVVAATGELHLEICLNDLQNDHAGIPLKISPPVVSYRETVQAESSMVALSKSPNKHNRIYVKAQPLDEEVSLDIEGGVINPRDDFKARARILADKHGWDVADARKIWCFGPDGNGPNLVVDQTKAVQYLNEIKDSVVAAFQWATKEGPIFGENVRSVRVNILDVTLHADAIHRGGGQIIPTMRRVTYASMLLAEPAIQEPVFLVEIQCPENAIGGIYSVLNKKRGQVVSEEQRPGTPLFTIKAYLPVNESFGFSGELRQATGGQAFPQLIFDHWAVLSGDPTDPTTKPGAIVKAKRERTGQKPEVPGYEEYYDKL
T2 sequence (Q6FYA7 whole entry): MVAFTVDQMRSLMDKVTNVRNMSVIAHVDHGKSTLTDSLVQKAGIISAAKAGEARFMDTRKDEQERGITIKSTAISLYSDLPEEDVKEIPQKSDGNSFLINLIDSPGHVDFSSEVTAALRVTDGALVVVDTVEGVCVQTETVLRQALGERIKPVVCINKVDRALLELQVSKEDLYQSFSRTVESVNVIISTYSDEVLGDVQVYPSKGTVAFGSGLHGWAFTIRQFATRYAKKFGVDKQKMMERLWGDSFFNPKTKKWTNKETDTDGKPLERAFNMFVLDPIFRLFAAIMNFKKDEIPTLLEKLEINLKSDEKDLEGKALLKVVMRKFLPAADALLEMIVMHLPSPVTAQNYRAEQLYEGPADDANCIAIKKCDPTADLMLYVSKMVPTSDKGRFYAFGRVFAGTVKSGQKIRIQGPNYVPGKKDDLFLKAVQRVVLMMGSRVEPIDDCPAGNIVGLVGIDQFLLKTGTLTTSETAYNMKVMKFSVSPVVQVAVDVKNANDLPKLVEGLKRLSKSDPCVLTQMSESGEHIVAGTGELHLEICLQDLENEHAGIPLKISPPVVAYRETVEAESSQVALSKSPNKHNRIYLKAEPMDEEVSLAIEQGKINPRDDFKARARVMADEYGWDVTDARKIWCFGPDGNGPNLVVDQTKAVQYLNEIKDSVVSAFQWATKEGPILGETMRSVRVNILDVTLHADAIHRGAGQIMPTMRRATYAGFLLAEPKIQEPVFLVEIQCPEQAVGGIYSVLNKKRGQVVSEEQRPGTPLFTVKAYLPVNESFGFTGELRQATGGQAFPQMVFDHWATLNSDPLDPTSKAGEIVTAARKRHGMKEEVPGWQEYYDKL
Chain of C. krusei/SIII (S. cerevisiae strain expressing C. krusei eEF2) (A0A2U9R6P9 1-830, change not shown): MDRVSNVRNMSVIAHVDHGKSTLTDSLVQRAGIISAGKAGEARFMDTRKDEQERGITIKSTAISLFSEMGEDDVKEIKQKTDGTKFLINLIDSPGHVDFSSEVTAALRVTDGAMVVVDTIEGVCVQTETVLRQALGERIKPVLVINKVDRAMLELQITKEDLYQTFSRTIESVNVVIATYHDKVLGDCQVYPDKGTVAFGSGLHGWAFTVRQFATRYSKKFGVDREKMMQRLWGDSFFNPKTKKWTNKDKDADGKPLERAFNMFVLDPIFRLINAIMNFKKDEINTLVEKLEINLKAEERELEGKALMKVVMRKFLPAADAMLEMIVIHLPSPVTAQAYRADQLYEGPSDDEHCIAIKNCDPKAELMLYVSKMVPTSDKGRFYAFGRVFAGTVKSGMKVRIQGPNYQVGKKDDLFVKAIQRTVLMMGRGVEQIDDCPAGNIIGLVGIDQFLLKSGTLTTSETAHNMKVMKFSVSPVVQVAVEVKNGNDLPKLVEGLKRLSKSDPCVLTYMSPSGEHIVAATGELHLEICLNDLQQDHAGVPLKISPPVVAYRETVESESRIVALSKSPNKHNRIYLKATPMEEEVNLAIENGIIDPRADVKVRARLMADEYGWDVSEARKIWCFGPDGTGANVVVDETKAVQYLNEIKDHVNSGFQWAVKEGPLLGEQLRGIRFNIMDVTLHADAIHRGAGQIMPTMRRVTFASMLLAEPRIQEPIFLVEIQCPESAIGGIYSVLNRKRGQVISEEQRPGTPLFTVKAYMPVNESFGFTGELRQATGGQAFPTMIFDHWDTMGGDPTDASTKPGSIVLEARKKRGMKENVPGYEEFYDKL

Row | Structure (SMILES) | IC50 [1] | IC50 [2] | IC50 [8] | IC50 [9] | IC50 [10] | IC50 [12] | IC50 [13] | IC50 [14] | IC50 [15] | IC50 [16] | IC50 [17] | also measured
1 | COC1C(C)OC(OCC23CC4C(C)CCC4C4(C=O)CC2C=C(C(C)C)C43C(=O)O)C(O)C12OC(=O)C(CCCCCCCC(=O)O)O2 (stereo not shown) [The Compound of Formula I] | 0.015 µg/mL | 0.6 µg/mL | 1 µg/mL | 0.5 µg/mL | 0.02 µg/mL | 0.006 µg/mL | 0.217 µM | 7.24 µM | 0.006 µg/mL | 0.006 µg/mL | 0.5 µg/mL | IC50 [3, 18]: > 29 µM; IC50 [4, 18]: 29 µM; IC50 [5, 18]: > 29 µM; IC50 [6, 18]: 21.7 µM; GI50 [7, 18]: > 29 µM; IC50 [11, 18]: 7.24 µM
2 | CO[C@H]1[C@@H](O)[C@H](O)[C@H](OC[C@@]23C[C@@H]4[C@H](C)CC[C@H]4[C@@]4(C=O)CC2C=C(C(C)C)[C@@]34C(=O)O)O[C@@H]1C [Sordarin] | 0.036 µg/mL (≈ 0.0731 µM) | 2.6 µg/mL (≈ 5.28 µM) | >100 µg/mL | >100 µg/mL | 0.2 µg/mL (≈ 0.406 µM) | 0.006 µg/mL (≈ 0.0122 µM) | 0.386 µM | 12.7 µM | 0.006 µg/mL (≈ 0.0122 µM) | 0.01 µg/mL (≈ 0.0203 µM) | >100 µg/mL | IC50 [3, 19]: > 203 µM; IC50 [4, 19]: > 203 µM; IC50 [5, 19]: > 203 µM; IC50 [6, 19]: > 203 µM; GI50 [7, 19]: > 203 µM; IC50 [11, 19]: > 203 µM

From patent publication US20040242904A1, “Novel sordarin derivative isolated from culture fermentations and functions as an antifungal agent” (priority 2001, published 2004)
